Source: US5541232A, “Treatment of multidrug resistant diseases” (Chemex Pharmaceuticals, Inc., priority 1994, dated 1996)
“Also recorded” adds a separate entry of the source. Where two headings read alike, the source gives them in different places.

Key:
[1] = test system: benign, paramalignant and malignant growth of the skin; conditions: in combination with ionic zinc; cited from earlier work
[2] = test system: KB-3-1 human cervical carcinoma cells; experiment: steady state accumulation of VBL, KB-3-1; type: cell-based
Protocol: At the desired time, the medium was aspirated and cells washed 5 times with ice cold PBS. Cells were digested overnight in 1N NaOH, at which time aliquots were used to determine protein content and radioactivity. The final concentration of VBL was 6 nM.
Cells were incubated for one hour with media containing either tritiated vinblastine (^3 H]VBL) alone or containing [^3 H]VBL with 50 μM masoprocol. Cells were then washed with ice cold PBS and the amount of VBL accumulated in cells was determined using a scintillation counter. In FIG. 1 each data point represents the mean of replicate experiments performed with duplicate cultures. Vertical bars are +/- S.D.

[3] = test system: multidrug resistant tumor cells; experiment: effects on vincristine (VBL substituted by vincristine in Example 3); type: cell-based
Description: In accordance with the invention VBL can be substituted by vincristine in Example 3.

[4] = test system: MCF7/ADR human breast adenocarcinoma cells; experiment: flow cytometry P-glycoprotein function assay of doxorubicin efflux, MCF7/ADR (doxorubicin resistant); type: cell-based
Protocol: (§1) The following tests were preformed to determine the effect of NDGA on efflux of doxorubicin (hereinafter sometimes referred to as DOX) for doxorubicin sensitive MCF7/0 and doxorubicin resistant MCF7/ADR human breast adenocarcinoma cells in vitro.
(§2) The cells were exposed to 50 μg/ml NDGA for 24 hrs prior to loading with DOX (doxorubicin) at 37° C. […] PBS. Flow analysis of cell efflux of DOX was collected over 30 minutes using the time parameter.
(§3) Procedure for P-Glycoprotein (PGP) Function Assay of Doxorubicin Efflux is shown hereunder.
(§4) 1. […] Store at room temperature.
(§5) 2. Doxorubicin (GFW=580) Make a solution of doxorubicin to contain 10 μg/ml. Store frozen at 0° C.
(§6) 4. NDGA (MW=302.36) Make a solution of NDGA to contain 50 μg/ml. Store frozen at 0° C.
(§7) 5. MCF7/0 (Doxorubicin sensitive) and MCF7/ADR (Doxorubicin resistant), human breast adenocarcinoma cell lines.
(§8) 1. Make up 2×10^6 cells per ml in PBS. Expose 1 ml of cells to 50 μg of NDGA for 24 hrs at 37° C. prior to loading with Doxorubicin.
(§9) 2. Add 1 ml of 10 μg/ml doxorubicin, mix and divide into two aliquots.
(§10) 4. Incubate both tubes at 37° C. for 30 minutes.
(§11) 5. Centrifuge the tubes at 37° C. for 5 minutes on a fast spin to pellet cells. Resuspend in 1 ml of buffer.
(§12) 6. Run immediately on the flow cytometer. Excitation 488 nm, emission 560-600 nm. Collect forward and 90° side scatter and PMT4 linear scale. Collect 10,000-50,000 events and calculate the mean channel fluorescence (MCF) for PMT4.
(§13) 7. Run both samples as close together as possible, and avoid prolonged exposure to room temperature.

[5] = test system: MCF7/0 human breast adenocarcinoma cells; experiment: flow cytometry P-glycoprotein function assay of doxorubicin efflux, MCF7/0 (doxorubicin sensitive); type: cell-based
Protocol: as §1, §2, §3, §4, §5, §6, §7, §8, §9, §10, §11, §12, §13

[6] = test system: KB-3-1 human cervical carcinoma cells; experiment: inhibition of colony formation, KB-3-1; type: cell-based; conditions: KB 3-1, 240 h, read-out: IC50 (Masoprocol), 50% inhibition of colony formation, 10 days, 37° C., parenthesis: standard deviation
Description: (§14) To investigate whether masoprocol modulates multidrug resistance, a line of multidrug resistant (GRC-1) cells which were derived from parenteral drug sensitive human cervical carcinoma (KB-3-1) cells by transfection of the mdr1 genes were employed. Such transfection was by the method set forth in Choi, et al., Cell 53:519-529, 1989. These cell lines differ only with respect to the over-expression of P-glycoprotein. These tests were designed to examine whether masoprocol modulates tumor cell drug resistance by interfering with P-glycoprotein function. […] See, Regulation of initial vinblastine influx by P-glycoprotein, Shalinsky, et al., cited above.
Masoprocol was provided by Chemex Pharmaceuticals, Inc. (Fort Lee, N.J.). Tritiated vinblastine ([^3 H]VBL) (10 Ci mmol^-1) was purchased from Moravek Biochemicals (Brea, Calif.), stored in the dark at -80° C. and protected from light during the experiments. […]
(§15) First, cells which had been seeded at 200-300 cells/dish were incubated in media containing masoprocol or VBL. After an incubation period of 10 days at 37° C. the cells were fixed with methanol and stained with Giemsa, and the number of colonies per dish were counted and expressed as a percent of the number of colonies in control conditions. […] Parenthesis indicate standard deviations determined from replicate experiments.

[7] = test system: GRC-1 multidrug resistant human cervical carcinoma cells; experiment: inhibition of colony formation, GRC-1; type: cell-based; conditions: Homo sapiens, 240 h, read-out: IC50 (Masoprocol), 50% inhibition of colony formation; 10 days, 37° C.; parenthesis: standard deviation
Description: as §14
Masoprocol was provided by Chemex Pharmaceuticals, Inc. (Fort Lee, N.J.). Tritiated vinblastine ([^3 H]VBL) (10 Ci mmol^-1) was purchased from Moravek Biochemicals (Brea, Calif.), stored in the dark at -80° C. and protected from light during the experiments. Dipyridamole (DPM) was provided by Boerhinger Ingelheim Pharmaceuticals, Inc. (Ridgefield, Conn.).
Drug-sensitive KB-3-1 cells and the drug resistant subline (KB-GRC-1) were obtained from Dr. Igor Roninson (University of Illinois, College of Medicine, Chicago, Ill.). Cells were maintained in Dulbecco's modified Eagle's medium supplemented with 10% fetal bovine serum and 2 mM glutamine. The KB-GRC-1 cells were maintained in medium supplemented with 6 ng/ml colchicine.
as §15

[8] = test system: Lung (LX-1) cancer cells; experiment: in vitro cytotoxicity anti tumor activity; type: cell-based; conditions: 1 h; One Hour Pulse Treatment; read-out: IC50
[9] = test system: KB-3-1 human cervical carcinoma cells; experiment: efflux of VBL, KB-3-1; type: cell-based; conditions: 50 μM masoprocol
Protocol: A further test was conducted to show the effect of masoprocol on the efflux of VBL from cells. Cells were incubated with [^3 H]VBL with or without 50 μM masoprocol for 2 hours. The medium was then replaced with drug-free medium. After incubation for various times, the amount of VBL remaining in the cells was determined as described above. The data was presented in terms of the percentage of VBL remaining at various efflux times compared to VBL in cells with an efflux time of zero. In FIGS. 3a and 3b, efflux is expressed as pmol VBL. In FIGS. 3c and 3d, efflux is expressed as percentage of VBL levels at time zero.

[10] = test system: Hs 68 Newborn Foreskin Fibroblasts; experiment: in vitro cytotoxicity, normal cells; type: cell-based; conditions: Homo sapiens, read-out: IC50
[11] = test system: mammals; conditions: in vivo; cited from earlier work
[12] = test system: Detroit 551 Skin Fibroblasts; experiment: in vitro cytotoxicity, normal cells; type: cell-based; conditions: Homo sapiens, read-out: IC50

C[C@H](Cc1ccc(O)c(O)c1)[C@@H](C)Cc1ccc(O)c(O)c1 [Masoprocol, meso-1,4-bis (3,4-dihydroxyphenyl)-2,3-dimethylbutane]
effectiveness in treatment of growth of the skin [1]: effective
steady state accumulation of VBL, compared with verapamil ([2]; 50 μM masoprocol): comparable to that of 10 μM verapamil
steady state accumulation of VBL ([2]; one hour, masoprocol with [3H]VBL): dose-dependent increase in the steady state accumulation of VBL; also recorded: increases the steady state accumulation of VBL
effects on vincristine compared with VBL [3]: comparative effects
activation at 50 µg/mL ([4]; Homo sapiens, NCI/ADR-RES, 24 h, read-out: % DOX increase w/NDGA): 25.6%
DOX loading / retention / efflux (in words) ([4]; resistant cells, listed as NDGA): augmentation of DOX retention; also recorded: will inhibit the efflux of DOX
activation at 50 µg/mL ([5]; Homo sapiens, MCF7, 24 h, read-out: % DOX increase w/NDGA): 44.5%
DOX loading / retention / accumulation (in words) ([5]; sensitive cells): loading more DOX after NDGA treatment than controls or verapamil treated cells
IC50 [6]: 43.6 µM
IC50 [7]: 66.8 µM
IC50 [8]: 18 µM
modulation of VBL efflux [9]: does not modulate VBL efflux
VBL levels at efflux time zero ([9]; 2 hours, FIG. 3b): higher in masoprocol-treated cells
percent of VBL retained at various efflux time points ([9]; FIG. 3d): not affected by masoprocol treatment
modulation of VBL efflux ([9]; listed as masoprocol): does not influence the rate of efflux of VBL
IC50 ([10]; Hs68, 1 h, One Hour Pulse Treatment): 178 µM
IC50 ([10]; Hs68, Continuous Drug Exposure, observation at 70 hours): 18 µM
retarding senescence or aging [11]: having efficacy in retarding senescence or aging in mammals
IC50 ([12]; Detroit 551, 1 h, One Hour Pulse Treatment): 62.7 µM
IC50 ([12]; Detroit 551, Continuous Drug Exposure, observation at 70 hours): 312 µM
